Data from US7662778B2, “Histone deacetylase inhibitor and process for producing the same” (Riken, priority 2003, dated 2010).
pEC50: −log10 of the molar value. Where two headings read alike, the source gives them in different places. One block for each molecule: values may come before it. Where a SMILES comes first, the peptide text is derived from it. [ ]: non-standard residue; d: D form. The star is where a group is joined. hLys(Nζ-OH,Nζ-For) = N[C@@H](CCCCCN(O)C=O)C(=O)O; Asu = N[C@@H](CCCCCC(=O)O)C(=O)O; X1 = Oc1ccccc1N*

How the values were obtained:
mouse HDAC6 = molecular target: T1, mouse HDAC6 (Mus musculus, UniProt Q9Z2V5); experiment: HDAC inhibitory activity in vitro (coumarin-labeled acetylated histone peptide), HDAC6; assay type: biochemical; conditions: Table 1; 37° C., 30 minutes; read-out: IC50 (μM) HDAC6
T1 construct: HA; made in house; host or cells: 293T cells, transient transfection; anti-HA immunoprecipitation and HA peptide elution
T1 sequence (Q9Z2V5 1-1149): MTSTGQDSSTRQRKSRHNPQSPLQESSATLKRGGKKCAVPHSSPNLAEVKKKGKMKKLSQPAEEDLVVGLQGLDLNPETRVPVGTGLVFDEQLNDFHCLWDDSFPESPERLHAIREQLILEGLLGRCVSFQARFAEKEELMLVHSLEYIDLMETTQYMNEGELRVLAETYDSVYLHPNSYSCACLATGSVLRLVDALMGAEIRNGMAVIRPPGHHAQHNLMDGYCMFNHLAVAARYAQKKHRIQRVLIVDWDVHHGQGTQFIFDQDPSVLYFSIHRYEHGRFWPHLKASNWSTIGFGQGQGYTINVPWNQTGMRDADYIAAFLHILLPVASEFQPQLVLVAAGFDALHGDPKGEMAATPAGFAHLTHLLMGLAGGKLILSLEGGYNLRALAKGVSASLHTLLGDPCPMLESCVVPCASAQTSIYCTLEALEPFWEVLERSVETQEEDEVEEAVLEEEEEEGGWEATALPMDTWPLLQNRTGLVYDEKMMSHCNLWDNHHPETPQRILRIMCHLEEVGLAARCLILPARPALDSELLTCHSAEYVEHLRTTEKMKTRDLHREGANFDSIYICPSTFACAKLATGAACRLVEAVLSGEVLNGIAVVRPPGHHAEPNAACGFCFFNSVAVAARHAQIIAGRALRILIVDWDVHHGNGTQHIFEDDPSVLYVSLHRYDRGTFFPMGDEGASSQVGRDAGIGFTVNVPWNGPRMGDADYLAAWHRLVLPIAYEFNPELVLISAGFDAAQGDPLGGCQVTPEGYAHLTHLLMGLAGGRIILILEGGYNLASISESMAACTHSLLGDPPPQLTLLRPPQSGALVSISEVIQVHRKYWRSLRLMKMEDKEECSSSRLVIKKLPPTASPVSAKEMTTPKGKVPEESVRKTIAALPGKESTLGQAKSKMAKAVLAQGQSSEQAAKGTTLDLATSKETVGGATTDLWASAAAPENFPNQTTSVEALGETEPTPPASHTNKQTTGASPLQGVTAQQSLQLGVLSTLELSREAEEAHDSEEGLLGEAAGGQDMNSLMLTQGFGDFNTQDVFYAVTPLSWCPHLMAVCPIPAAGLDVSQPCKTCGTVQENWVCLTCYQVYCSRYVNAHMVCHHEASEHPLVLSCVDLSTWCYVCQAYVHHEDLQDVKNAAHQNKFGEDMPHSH

human HDAC4 = molecular target: T2, human HDAC4 (Homo sapiens, UniProt P56524); experiment: HDAC inhibitory activity in vitro (coumarin-labeled acetylated histone peptide), HDAC4; assay type: biochemical
T2 construct: FLAG; made in house; host or cells: 293T cells, transient transfection; anti-FLAG immunoprecipitation and FLAG peptide elution
T2 sequence (P56524 whole entry): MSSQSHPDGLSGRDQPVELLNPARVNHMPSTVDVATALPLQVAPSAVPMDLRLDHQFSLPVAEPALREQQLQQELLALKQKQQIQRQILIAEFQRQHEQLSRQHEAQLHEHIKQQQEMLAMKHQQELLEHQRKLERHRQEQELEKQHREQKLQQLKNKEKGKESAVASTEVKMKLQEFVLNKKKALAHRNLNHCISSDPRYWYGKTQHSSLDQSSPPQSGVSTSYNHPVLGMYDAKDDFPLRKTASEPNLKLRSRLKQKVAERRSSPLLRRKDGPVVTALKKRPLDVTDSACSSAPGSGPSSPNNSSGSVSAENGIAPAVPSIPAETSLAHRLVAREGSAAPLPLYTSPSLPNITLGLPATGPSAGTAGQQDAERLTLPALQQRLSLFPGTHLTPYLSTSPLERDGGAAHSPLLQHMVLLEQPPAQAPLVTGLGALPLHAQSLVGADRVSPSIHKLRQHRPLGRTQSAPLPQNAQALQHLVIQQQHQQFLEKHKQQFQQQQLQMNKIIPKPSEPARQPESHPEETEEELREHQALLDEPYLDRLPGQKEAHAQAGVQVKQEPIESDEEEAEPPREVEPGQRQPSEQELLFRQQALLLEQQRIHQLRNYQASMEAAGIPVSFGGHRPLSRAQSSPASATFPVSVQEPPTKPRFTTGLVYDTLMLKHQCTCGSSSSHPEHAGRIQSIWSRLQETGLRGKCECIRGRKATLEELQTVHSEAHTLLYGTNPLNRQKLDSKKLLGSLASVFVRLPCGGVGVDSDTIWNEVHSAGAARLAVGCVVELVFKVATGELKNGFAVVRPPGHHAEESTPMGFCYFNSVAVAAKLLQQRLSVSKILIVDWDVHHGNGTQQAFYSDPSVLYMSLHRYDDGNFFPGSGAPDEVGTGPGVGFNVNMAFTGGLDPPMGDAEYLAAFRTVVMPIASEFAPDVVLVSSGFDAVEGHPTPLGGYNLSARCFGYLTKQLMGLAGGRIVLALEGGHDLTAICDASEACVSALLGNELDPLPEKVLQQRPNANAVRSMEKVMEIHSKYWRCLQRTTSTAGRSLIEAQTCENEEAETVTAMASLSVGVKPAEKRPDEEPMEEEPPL

human HDAC1 = molecular target: T3, human HDAC1 (Homo sapiens, UniProt Q13547); experiment: HDAC inhibitory activity in vitro (coumarin-labeled acetylated histone peptide), HDAC1; assay type: biochemical
T3 construct: FLAG; made in house; host or cells: 293T cells, transient transfection; anti-FLAG immunoprecipitation and FLAG peptide elution
T3 sequence (Q13547 whole entry): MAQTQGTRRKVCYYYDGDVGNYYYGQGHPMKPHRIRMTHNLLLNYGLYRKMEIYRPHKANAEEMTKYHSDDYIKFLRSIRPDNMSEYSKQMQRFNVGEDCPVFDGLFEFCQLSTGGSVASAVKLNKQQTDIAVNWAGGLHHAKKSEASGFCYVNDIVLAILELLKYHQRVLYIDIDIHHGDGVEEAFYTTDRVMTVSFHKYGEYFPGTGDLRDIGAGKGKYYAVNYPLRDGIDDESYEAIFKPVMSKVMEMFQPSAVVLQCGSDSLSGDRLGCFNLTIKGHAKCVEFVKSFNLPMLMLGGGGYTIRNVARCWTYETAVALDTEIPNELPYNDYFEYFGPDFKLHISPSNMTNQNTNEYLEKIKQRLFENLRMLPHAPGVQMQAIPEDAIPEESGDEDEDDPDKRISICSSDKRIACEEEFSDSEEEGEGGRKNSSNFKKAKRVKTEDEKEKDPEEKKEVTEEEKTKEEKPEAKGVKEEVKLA

[1] = amide bond, 12-membered ring, DMF
[2] = system: human wild-type p21 promoter; experiment: p21 promoter-inducing activity (luciferase) in MFLL-9 cells; assay type: cell-based
Procedure: The HDAC inhibitory activity in vivo was measured using p21 promoter-inducing activity as an index, as shown below. The MFLL-9 cells employed for the experiments stably maintained fusion genes of human wild-type p21 promoter and luciferase (Dr. B. Vogelstaein). Using phenol red-free DMEM medium comprising 10% FBS, cultivation was carried out in a steam-saturated incubator at 37° C. with 5% carbon dioxide. The MFLL-9 cells were plated at a density of 85,000 cells/well on a 96-well microtiter plate, each in 99 μl of the above-mentioned medium. These were then cultivated for six hours. One μl of test compound solution was added to each well, which was then cultured for another 18 hours.
The intensity of luminescence caused by the product of the enzyme reaction for intracellular luciferase expression was measured using Luc Lite (Packard BioScience Company).
HDAC inhibitory activity in an in vivo system was measured using p21 promoter induction as index. The experimental method followed that of Example 11.

[3] = Table 1, 37° C., 30 minutes, read-out: IC50 (μM) HDAC4
[4] = Table 1, 37° C., 30 minutes, read-out: IC50 (μM) HDAC1
[5] = Table 1, MFLL-9 cells, 18 hours, concentration corresponding to 50% of the maximum active value for TSA

Molecule: CC[C@H](C)[C@@H]1NC(=O)[C@@H](Cc2ccc(OC)cc2)NC(=O)[C@H](CCCCCCN(C=O)OCc2ccccc2)NC(=O)C2CCCCN2C1=O (mixture of isomers) [Cyclo(-L-A2oc(For, OBzl)-D-Tyr(Me)-L-Ile-DL-Pip-)]
ring closure, isolated yield ([1]; from H-dTyr(Me)-Ile-DL-Pip-A2oc(For,OBzl)-OH, HATU/DIEA, 1.6 mM, 25.0 °C): 21%

Molecule: CC[C@H](C)[C@@H]1NC(=O)[C@@H](Cc2ccc(OC)cc2)NC(=O)[C@H](CCCCCN(C=O)OCc2ccccc2)NC(=O)[C@@H]2CCCCN2C1=O [cyclo(-L-Hly(For, OBzl)-D-Tyr(Me)-L-Ile-L-Pip-)]
ring closure, isolated yield ([1]; from H-dTyr(Me)-Ile-Pip-Hly(For,OBzl)-OH?, HATU/DIEA, 0.39 mM, 25.0 °C): 28%

Molecule: CC[C@H](C)[C@@H]1NC(=O)[C@@H](Cc2ccc(OC)cc2)NC(=O)[C@H](CCCCOn2nnc3cccnc32)NC(=O)[C@H]2CCCN2C1=O [cyclo(-L-Ab6-D-Tyr(Me)-L-Ile-D-Pro-)]
ring closure, isolated yield ([1]; from H-dTyr(Me)-Ile-dPro-Ab6-OH, HBTU/HOBt/DIEA, 5.4 mM, 2 steps): 32%

Molecule: CC[C@H](C)[C@@H]1NC(=O)[C@@H](Cc2ccc(OC)cc2)NC(=O)[C@H](CCCCCN(C=O)OCc2ccccc2)NC(=O)[C@@H]2CCCN2C1=O [cyclo(-L-Hly(For, OBzl)-D-Tyr(Me)-L-Ile-L-Pro-)]
ring closure, isolated yield ([1]; from H-dTyr(Me)-Ile-Pro-Hly(For,OBzl)-OH, HATU/DIEA, 0.68 mM, 25.0 °C): 44%

Molecule: CC[C@H](C)[C@@H]1NC(=O)[C@@H](Cc2ccc(OC)cc2)NC(=O)[C@H](CCCCCC(=O)O)NC(=O)[C@H]2CCCN2C1=O [COOH, cyclo(L-Asu-D-Tyr(Me)-L-Ile-D-Pro)] (cyclo([Asu][dY](Me)I[dP]))
pEC50 [2, 5]: < 4.00
IC50 (mouse HDAC6): > 500 µM
IC50 (human HDAC1; [4]): 4.07 µM
IC50 (human HDAC4; [3]): 5.69 µM

Molecule: cyclo(-L-Aph-D-Tyr(Me)-L-Ile-D-Pro-)
ring closure, isolated yield ([1]; HATU/DIEA, 2.7 mM, 25.0 °C, 2 steps): 11%

The next lines start with the values.

IC50 (mouse HDAC6): 0.78 µM
IC50 (human HDAC4; [3]): 0.074 µM
Molecule: CC[C@H](C)[C@@H]1NC(=O)[C@@H](Cc2ccc(OC)cc2)NC(=O)[C@H](CCCCCN(O)C=O)NC(=O)[C@H]2CCCN2C1=O [N(OH)COH Cyclo(X-y(Me)-I-p), n = 5] (cyclo([hLys(Nζ-OH,Nζ-For)][dY](Me)I[dP]))

IC50 (mouse HDAC6): 12.2 µM
IC50 (human HDAC1; [4]): 6.36 µM
IC50 (human HDAC4; [3]): 7.02 µM
Molecule: CC[C@H](C)[C@@H]1NC(=O)[C@@H](Cc2ccc(OC)cc2)NC(=O)[C@H](CCCCCCN(O)C=O)NC(=O)[C@H]2CCCCN2C1=O [N(OH)COH Cyclo(X-y(Me)-I-pip), n = 6]

pEC50 [2, 5]: 5.40
IC50 (mouse HDAC6): > 500 µM
IC50 (human HDAC1; [4]): 0.12 µM
IC50 (human HDAC4; [3]): 0.07 µM
Molecule: CC[C@H](C)[C@@H]1NC(=O)[C@@H](Cc2ccc(OC)cc2)NC(=O)[C@H](CCCCCC(=O)OC)NC(=O)[C@H]2CCCN2C1=O [COOMe, cyclo(-L-Asu(OMe)-D-Tyr(Me)-L-Ile-D-Pro-)] (cyclo([Asu](OMe)[dY](Me)I[dP]))

pEC50 [2, 5]: < 4.00
Molecule: CC[C@H](C)[C@@H]1NC(=O)[C@@H](Cc2ccc(OC)cc2)NC(=O)[C@H](CCCCCS(C)(=O)=O)NC(=O)[C@H]2CCCN2C1=O [SO2Me]

pEC50 ([2]; Table 3, method of Example 11, 50% of the maximum activity observed in TSA): 4.26
IC50 (human HDAC1; Table 3, method of Example 11, read-out: IC50(μM) HDAC1): 1.22 µM
IC50 (human HDAC4; Table 3, method of Example 11, read-out: IC50(μM) HDAC4): 0.23 µM
Molecule: CC[C@H](C)[C@@H]1NC(=O)[C@@H](Cc2ccc(OC)cc2)NC(=O)[C@H](CCCCCC(=O)Nc2ccccc2O)NC(=O)[C@H]2CCCN2C1=O [OAPOH, cyclo(L-Asu(OAPOH)-D-Tyr(Me)-L-Ile-D-Pro)] (cyclo([Asu](X1)[dY](Me)I[dP]))
